molecular target: redox function of APE1 (Homo sapiens, UniProt P27695); test: Redox EMSA Assay; assay type: biochemical; details: 0.02 mM DTT
Experimental: EXAMPLE. Redox EMSA Assay. Conventional electrophoresis measuring Ape1 […] with 0.02 mM DTT is used to evaluate test compounds. Additional details are described in Fishel et al. Mol Cancer Ther. 2011 September; 10(9):1698-708 & Luo et al., Antioxid Redox Signal. 2008 November; 10(11):1853-67. […]

redox function of APE1, sequence (P27695 whole entry): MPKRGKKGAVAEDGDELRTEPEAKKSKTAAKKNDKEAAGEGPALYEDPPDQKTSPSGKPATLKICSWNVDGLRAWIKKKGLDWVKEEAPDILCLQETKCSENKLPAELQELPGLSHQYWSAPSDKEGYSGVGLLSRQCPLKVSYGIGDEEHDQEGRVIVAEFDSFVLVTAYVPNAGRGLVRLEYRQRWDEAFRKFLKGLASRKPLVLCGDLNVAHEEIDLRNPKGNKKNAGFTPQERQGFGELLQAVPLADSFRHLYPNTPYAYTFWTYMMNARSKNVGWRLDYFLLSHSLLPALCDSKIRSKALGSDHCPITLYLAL

Row | IC50 [µM] | Structure (SMILES)
1 | 26 | CCCC/C(=C\C1=C(C)C(=O)c2ccccc2C1=O)C(=O)N(C)OC [Example 16]
2 | 47 to 52 | CCCC/C(=C\C1=C(C)C(=O)c2ccccc2C1=O)C(=O)O [Example 32]
3 | 24 | CCCC/C(=C\C1=C(C)C(=O)C(OC)=C(OC)C1=O)C(=O)N(C)OC [Example 31]
4 | 120 | CCCC/C(=C\C1=C(C)C(=O)c2ccccc2C1=O)C(=O)N(CC)CC [Example 9]
5 | 15 | CCCCCCCCC/C(=C\C1=C(C)C(=O)C(OC)=C(OC)C1=O)C(=O)N(C)CC(O)C(O)C(O)C(O)CO (stereo not drawn) [Example 30]
6 | < 1 | CCC/C(=C\C1=C(OC)C(=O)c2ccccc2C1=O)C(=O)N(CC)CC [Example 5]
7 | 2.5 | CCC/C(=C\C1=C(Cl)C(=O)c2ccccc2C1=O)C(=O)N(CC)CC [Example 23]
8 | 3.3 | CCC/C(=C\C1=C(OC)C(=O)c2ccccc2C1=O)C(=O)NCC [Example 3]
9 | 25 | CCCC/C(=C/C1=C(C)C(=O)c2ccccc2C1=O)C(=O)N1CCOCC1 [Example 17]
10 | 20 | CCCC/C(=C\C1=C(C)C(=O)c2ccccc2C1=O)C(=O)NCC [Example 8]
11 | 13 | CCCC(=CC1=C(OC)C(=O)c2ccccc2C1=O)C(=O)N(CC)CC [Example 25]
12 | 94 | CCCC/C(=C\C1=C(C)C(=O)c2ccccc2C1=O)C(=O)NCCOC [Example 20]
13 | 14 | CCCC/C(=C\C1=C(C)C(=O)c2ccccc2C1=O)C(=O)NC1CC1 [Example 11]
14 | < 2.5 | CCC/C(=C\C1=C(Cl)C(=O)c2ccccc2C1=O)C(=O)NOC [Example 22]
15 | 17 | CCCC/C(=C\C1=C(C)C(=O)c2ccccc2C1=O)C(=O)NC [Example 6]
16 | < 1 | CCCC/C(=C\C1=C(OC)C(=O)c2ccccc2C1=O)C(=O)NOC [Example 10]
17 | 6.2 | CCC/C(=C\C1=C(OC)C(=O)c2ccccc2C1=O)C(=O)NC [Example 1]
18 | 2.6 | CCCC(=CC1=C(OC)C(=O)c2ccccc2C1=O)C(=O)N(C)C [Example 26]
19 | > 10 | CCC/C(=C\C1=C(O)C(=O)c2ccccc2C1=O)C(=O)O [Example 24]
20 | 40 | CCCC/C(=C/C1=C(C)C(=O)c2ccccc2C1=O)C(=O)NCCOC [Example 21]
21 | 34 | CCCC/C(=C\C1=C(C)C(=O)c2ccccc2C1=O)C(=O)N1CCOCC1 [Example 18]
22 | 23 | CCCC/C(=C\C1=C(C)C(=O)c2ccccc2C1=O)C(=O)N1CCNC(=O)C1 [Example 15]
23 | 23 | CCCC/C(=C\C1=C(C)C(=O)c2ccccc2C1=O)C(=O)N(C)C [Example 7]
24 | 17 | CCCCCCCCC/C(=C\C1=C(C)C(=O)C(OC)=C(OC)C1=O)C(=O)NOC [Example 29]
25 | 98 | CCCC/C(=C\C1=C(C)C(=O)c2ccccc2C1=O)C(=O)NC1CCCCC1 [Example 14]
26 | 0.5 | CCCC/C(=C\C1=C(OC)C(=O)c2ccccc2C1=O)C(=O)O [Example 33]

Row | Structure (SMILES) | IC50 [µM]
27 | CCC/C(=C\C1=C(OC)C(=O)c2ccccc2C1=O)C(=O)N(C)C [Example 2] | 2.3

Reference: patent publication US11160770B2, “Compounds, compositions and methods for treating oxidative DNA damage disorders” (Indiana University Research and Technology Corporation, priority 2011, dated 2021)
